The structures appear in SMILES notation.

The subject of assay [1] is gram-positive Staphylococcus aureus (S. aureus). The assay can be described thus: MIC assay, percentage growth inhibition, serial dilution in 96-well plates. Format: cell-based. To be noted: for inhibition of bacterial cells: at higher concentrations.
For assay [2], the system named is gram-negative Pseudomonas aeruginosa (P. aeruginosa). Described as above. Format: cell-based. To be noted: for inhibition of bacterial cells: at higher concentrations.

As for `CCn1cc(C(=O)O)c(=O)c2cc(F)c(N3CCNCC3)cc21` [NOR, norfloxacin], the inhibition at 128 µg/mL in assay [1] (Staphylococcus aureus, read-out: inhibitory effect against S. aureus) is 97.9 ± 0.38%. In addition, the “inhibition of bacterial cells” value in assay [1] and in assay [2] was 90% each time. In addition, the inhibition at 40 µg/mL in assay [2] (Pseudomonas aeruginosa, read-out: inhibitory effect against P. aeruginosa) was determined as 100.4 ± 0.17%.
For `O=C(O)c1cn(C2CC2)c2cc(N3CCNCC3)c(F)cc2c1=O` [CIPRO, ciprofloxacin], the “percent of S. aureus killed” value in assay [1] (12 µg/mL) turned out to be 98.30 ± 0.26%. The “inhibition of bacterial cells” value in assay [1] and in assay [2] was 90% each time. Besides, the “percent of P. aeruginosa killed” value in assay [2] (4 µg/mL) is 100.67 ± 0.39%.
Consider `C[C@H]1COc2c(N3CCN(C)CC3)c(F)cc3c(=O)c(C(=O)O)cn1c23` [LEVO, levofloxacin], for which the “inhibition of bacterial cells” value in assay [1] and in assay [2] was 90% each time.
